From patent US20260293937A1, “SHRIMP FEED AND METHODS OF USE THEREOF” (Organicin Scientific, Inc., priority 2023, published 2026)
Values joined by “and” are separate entries in the source; they are usually repeats but may differ in a detail not shown here. Equal entries are not always repeated. No end group written: not given here.

Tests used:
Assay in all cases: Minimum inhibitory concentration by serial two-fold dilution spotted on Vibrio lawns
Format in all cases: cell-based
[1] = system: Vibrio cholerae; conditions: individual V. cholerae lines; 37° C., 16 to 20 hours
Procedure: (§1) This Example describes the materials and methods, and results of a serial dilution experiment to determine the Minimum Inhibitory Concentration (MIC) of Nisin in reducing a concentration of pathogenic Vibrio.
(§2) On the day before the experiment, Vibrio stock were prepared by sterilizing an inoculation loop, cooling the product, and extracting cells. Such extract was incubated at 37° C. for 16 to 20 hours. The density of cells was normalized to a cell density of approximately 10^7 to 10^8 CFU/mL and 100 uL lawns were prepared at a cell density of about 10^6 to 10^7 CFU using sterile glass beads. Four lawns were made so that each Nisin dilution could be tested on two identical plates.
(§3) 5 μL of two-fold dilutions (See Table 1, below) of Nisin (Immucell; 99% pure), or shrimp feed (without Nisin), citric acid, or DH20 negative controls, respectively, were spotted on the plates, which were incubated at 37° C. for 16 to 20 hours. The minimum inhibitory concentration was determined. In particular, plates were characterized based upon the presence (0) or absence (1) of Vibrio growth.

[2] = system: Vibrio parahaemolyticus; conditions: individual V. parahaemolyticus lines; 37° C., 16 to 20 hours
Procedure: as §1, §2, §3

[3] = system: Vibrio alginolyticus; conditions: individual V. alginolyticus lines; 37° C., 16 to 20 hours
Procedure: as §1, §2, §3

Nisin: Nisin (Immucell; 99% pure) in Example 1; bacteriocin Nisin in shrimp feed at 0.84, 8.4 and 84 mg/g in Example 2 (ITSISLCTPGCKTGALMGCNMKTATCHCSIHVSK; cysteine pairing not given here; also: lantibiotic, modifications not placed; UniProt P13068 24-57, looked up)
MIC [1]: 1,057.5 ug/mL and 8.3 ug/mL and 2,115.0 ug/mL and 132.2 ug/mL and 1.06 wt/v % and 0.01 wt/v % and 2.12 wt/v % and 0.13 wt/v %
MIC [2]: 1,057.5 ug/mL and 33.1 ug/mL and 66.1 ug/mL and 528.8 ug/mL and 8.3 ug/mL and 1.06 wt/v % and 0.03 wt/v % and 0.07 wt/v % and 0.53 wt/v % and 0.01 wt/v %
MIC [3]: 8.3 ug/mL and 66.1 ug/mL and 2,115.0 ug/mL and 0.01 wt/v % and 0.07 wt/v % and 2.12 wt/v %
